Earlier results as cited in article PMC3314724 (Journal of Molecular Modeling, 2011).

Assays:
FPR1 = FPR1 agonist class, peptide derivatives

| Substance | Observed value (activity class) (FPR1) | EC50 (human neutrophils) |
| --- | --- | --- |
| N-formyl-Met-Leu-Ψ(COO) Phe-NHBzl [fMLΨ(COO)F-NHBzl] | Active |  |
| boc-cis-4-mer-captomethyl-Pro-Leu-Phe-OMe [boc-cis-4-mercaptomethyl-PLF-OMe] | Active |  |
| N-formyl-Met-Leu-Phe [fMLF] | Active | ~0.5 nM |
| N-formyl-Met-Leu-Phe-OMe [fMLF-OMe] | Active |  |
